Measured values taken from US20070270475A1, “4-Methoxy-Pyrrolidine-2-Carboxylic Acid Compounds and Derivatives Thereof as Hepatitis C Virus Inhibitors” (priority 2004, published 2007).

What was measured:
[1] = test system: Huh-7 HCV replicon cells (sub-line 5-15; genotype 1b); assay: Replicon ELISA cell based assay, genotype 1b (sub-line 5-15); design: species or system HCV genotype 1b; conditions: Hepatitis C virus, Huh-7 genotype 1b replicon sub-line 5-15, 72 hours
Protocol: (§1) Replicon ELISA Cell Based Assay
(§2) 100 μL of medium containing 10% FCS were added to each well of clear, flat-bottomed 96 well microplates, excepting wells in the top row. Test compound was diluted in assay medium to twice the final required starting concentration from a 40 mM stock solution in DMSO. 200 μL of the starting dilution were introduced into two wells each in the top row and doubling dilutions made down the plate by the sequential transfer of 100 μL aliquots with thorough mixing in the wells; the final 100 μL were discarded. The two bottom rows were not used for compound dilutions. Huh-7 HCV replicon cell monolayers nearing confluency were stripped from growth flasks with versene-trypsin solution and the cells were resuspended in assay medium at either 2×10^5 cells/mL (sub-line 5-15; genotype 1b; Lohmann, V., Korner, F., Koch, J-O., Herian, U., Thielmann, L. and Bartenschlager, R., 1999, Science, 285, pp 110-113) or at 3×10^5 cells/mL (genotype 1a; Gu, B., Gates, A.T., Isken, O., Behrens, S. E. and Sarisky, R. T., J. Virol., 2003, 77, 5352-5359). 100 μL of cell suspension were added to all wells and the plates incubated at 37° C. for 72 hours in a 5% CO2 atmosphere.
(§3) Following incubation, the assay medium was aspirated from the plates. The cell sheets were washed by gentle immersion in phosphate buffered saline (PBS), which was then aspirated off, and fixed with acetone:methanol (1:1) for 5 minutes. Following a further wash with PBS, 100 μL of ELISA diluent (PBS+0.05% v/v Tween 20+2% w/v skimmed milk powder) were added to all wells and the plates incubated at 37° C. for 30 minutes on an orbital platform. The diluent was removed and each well then received 50 μL of a 1/200 dilution of anti-HCV specific, murine, monoclonal antibody (either Virostat #1872 or #1877), except for wells in one of the compound-free control rows which received diluent alone to act as negative controls. The plates were incubated at 37° C. for 2 hours and washed 3 times with PBS/0.05% Tween 20, then 50 μL of horseradish peroxidase conjugated, anti-mouse, rabbit polyclonal serum (Dako #P0260), diluted 1/1000, were added to all wells. The plates were incubated for a further hour, the antibody removed and the cell sheets washed 5 times with PBS/Tween and blotted dry. The assay was developed by the addition of 50 μL of ortho-phenylenediamine/peroxidase substrate in urea/citrate buffer (SigmaFast, Sigma #P-9187) to each well, and colour allowed to develop for up to 15 minutes. The reaction was stopped by the addition of 25 μL per well of 2 M sulphuric acid and the plates were read at 490 nm on a Fluostar Optima spectrophotometer.
(§4) The substrate solution was removed and the plates were washed in tap water, blotted dry and the cells stained with 5% carbol fuchsin in water for 30 minutes. The stain was discarded and the cell sheets washed, dried and examined microscopically to assess cytotoxicity.
(§5) The absorbance values from all compound-free wells that had received both primary and secondary antibodies were averaged to obtain a positive control value. The mean absorbance value from the compound-free wells that had not received the primary antibody was used to provide the negative (background) control value. The readings from the duplicate wells at each compound concentration were averaged and, after the subtraction of the mean background from all values, were expressed as a percentage of the positive control signal. The quantifiable and specific reduction of expressed protein detected by the ELISA in the presence of a drug can be used as a measure of replicon inhibition. GraFit software (Erithacus Software Ltd.) was used to plot the curve of percentage inhibition against compound concentration and derive the 50% inhibitory concentration (IC50) for the compound.

[2] = test system: Huh-7 HCV replicon cells (genotype 1a); assay: Replicon ELISA cell based assay, genotype 1a; design: species or system HCV genotype 1a; conditions: Hepatitis C virus, Huh-7 genotype 1a replicon, 72 hours
Protocol: as §1, §2, §3, §4, §5

[3] = test system: 11-7 cell line (NS2-5B) HCV replicon; assay: Replicon ELISA cell based assay, genotype 1b, 11-7 cell line (NS2-5B); design: species or system HCV genotype 1b; conditions: Hepatitis C virus; 11-7 cell line (NS2-5B) used instead of the 5-15 cell line
Protocol: as §1
100 μL of medium containing 10% FCS were added to each well of clear, flat-bottomed 96 well microplates, excepting wells in the top row. Test compound was diluted in assay medium to twice the final required starting concentration from a 40 mM stock solution in DMSO. 200 μL of the starting dilution were introduced into two wells each in the top row and doubling dilutions made down the plate by the sequential transfer of 100 μL aliquots with thorough mixing in the wells; the final 100 μL were discarded. The two bottom rows were not used for compound dilutions. […]
Following incubation, the assay medium was aspirated from the plates. […] The reaction was stopped by the addition of 25 μL per well of 2 M sulphuric acid and the plates were read at 490 nm on a Fluostar Optima spectrophotometer. […]
The absorbance values from all compound-free wells that had received both primary and secondary antibodies were averaged to obtain a positive control value. The mean absorbance value from the compound-free wells that had not received the primary antibody was used to provide the negative (background) control value. The readings from the duplicate wells at each compound concentration were averaged and, after the subtraction of the mean background from all values, were expressed as a percentage of the positive control signal. […]

SMILES | IC50 [1] | IC50 [2] | IC50 [3]
COC[C@H]1C[C@@](Cc2ccccc2)(C(=O)O)N(C(=O)c2ccc(C(C)(C)C)c(OC)c2)[C@H]1c1nccs1 (racemic) [Compound E, rel-(2R,4S,5R)-2-benzyl-1-(3-methoxy-4-tert-butylbenzoyl)-4-methoxymethyl-5-(1,3-thiazol-2-yl)-pyrrolidine-2-carboxylic acid, reference compound] | 0.15 to 10 µM | > 100 µM | –
COC[C@H]1C[C@@](CC(C)C)(C(=O)O)N(C(=O)c2ccc(C(C)(C)C)c(OC)c2)[C@H]1c1nccs1 [Compound B, (2S,4S,5R)-2-isobutyl-1-(3-methoxy-4-tert-butylbenzoyl)-4-methoxymethyl-5-(1,3-thiazol-2-yl)pyrrolidine-2-carboxylic acid, reference compound] | 0.15 to 10 µM | 10 to 100 µM | –
COC[C@H]1C[C@@](Cn2cccn2)(C(=O)O)N(C(=O)c2ccc(C(C)(C)C)c(OC)c2)[C@H]1c1nccs1 (single isomer, unassigned) [Example 7] | < 0.15 µM | < 10 µM | –
COC[C@H]1C[C@@](CC(C)C)(C(=O)O)N(C(=O)c2ccc(C(C)(C)C)c(OC)c2)[C@H]1c1nccs1 (racemic) [Compound A, rel-(2S,4S,5R)-2-isobutyl-1-(3-methoxy-4-tert-butylbenzoyl)-4-methoxymethyl-5-(1,3-thiazol-2-yl)pyrrolidine-2-carboxylic acid, reference compound] | 0.15 to 10 µM | 10 to 100 µM | –
COC[C@H]1C[C@@](Cc2nccs2)(C(=O)O)N(C(=O)c2ccc(C(C)(C)C)c(OC)c2)[C@H]1c1ncc(C)s1 (racemic) [Example 8, rel-(2R,4S,5R)-1-(3-Methoxy-4-tert-butylbenzoyl)-4-(methoxymethyl)-5-(5-methyl-1,3-thiazol-2-yl)-2-(1,3-thiazol-2-ylmethyl)pyrrolidine-2-carboxylic acid] | 0.15 to 10 µM | < 10 µM | –
COC[C@H]1C[C@@](CC(C)C)(C(=O)O)N(C(=O)c2ccc(C(C)(C)C)c(OC)c2)[C@H]1c1ncc(C)s1 (racemic) [Compound C, rel-(2S,4S,5R)-2-isobutyl-1-(3-methoxy-4-tert-butylbenzoyl)-4-methoxymethyl-5-(5-methyl-1,3-thiazol-2-yl)pyrrolidine-2-carboxylic acid, reference compound] | – | 10 to 100 µM | 0.15 to 10 µM
COC[C@H]1C[C@@](Cc2cscn2)(C(=O)O)N(C(=O)c2ccc(C(C)(C)C)c(OC)c2)[C@H]1c1ncc(C)s1 (single isomer, unassigned; enantiomer a) [Example 2] | < 0.15 µM | < 10 µM | –
COC[C@H]1C[C@@](Cc2cscn2)(C(=O)O)N(C(=O)c2ccc(C(C)(C)C)c(OC)c2)[C@H]1c1nccs1 (racemic) [Example 3, rel-(2R,4S,5R)-1-(3-Methoxy-4-tert-butylbenzoyl)-4-(methoxymethyl)-5-(1,3-thiazol-2-yl)-2-(1,3-thiazol-4-ylmethyl)pyrrolidine-2-carboxylic acid] | < 0.15 µM | < 10 µM | –
COC[C@H]1C[C@@](Cn2cccn2)(C(=O)O)N(C(=O)c2ccc(C(C)(C)C)c(OC)c2)[C@H]1c1nccs1 (racemic) [Example 6, rel-(2R,4S,5R)-1-(3-Methoxy-4-tert-butylbenzoyl)-4-(methoxymethyl)-2-(1H-pyrazol-1-ylmethyl)-5-(1,3-thiazol-2-yl)pyrrolidine-2-carboxylic acid] | < 0.15 µM | < 10 µM | –
COC[C@H]1C[C@@](Cc2ccsn2)(C(=O)O)N(C(=O)c2ccc(C(C)(C)C)c(OC)c2)[C@H]1c1ncc(C)s1 (racemic) [Example 9, rel-(2R,4S,5R)-1-(3-Methoxy-4-tert-butylbenzoyl)-4-(methoxymethyl)-5-(5-methyl-1,3-thiazol-2-yl)-2-(1,2-thiazol-3-ylmethyl)pyrrolidine-2-carboxylic acid] | < 0.15 µM | < 10 µM | –
COC[C@H]1C[C@@](Cn2cccn2)(C(=O)O)N(C(=O)c2ccc(C(C)(C)C)c(OC)c2)[C@H]1c1ncc(C)s1 (single isomer, unassigned; enantiomer a) [Example 11] | < 0.15 µM | < 10 µM | –
COC[C@H]1C[C@@](Cc2cscn2)(C(=O)O)N(C(=O)c2ccc(C(C)(C)C)c(OC)c2)[C@H]1c1ncc(C)s1 (racemic) [Example 1, rel-(2R,4S,5R)-1-(3-Methoxy-4-tert-butylbenzoyl)-4-(methoxymethyl)-5-(5-methyl-1,3-thiazol-2-yl)-2-(1,3-thiazol-4-ylmethyl)pyrrolidine-2-carboxylic acid] | < 0.15 µM | < 10 µM | –
COCC1CC(CC(C)C)(C(=O)O)N(C(=O)c2ccc(C(C)(C)C)c(OC)c2)C1c1ncc(C)s1 (single isomer, unassigned; enantiomer a) [Compound D, reference compound] | 0.15 to 10 µM | 10 to 100 µM | –
COC[C@H]1C[C@@](Cn2cccn2)(C(=O)O)N(C(=O)c2ccc(C(C)(C)C)c(OC)c2)[C@H]1c1ncc(C)s1 (racemic) [Example 10, rel-(2R,4S,5R)-1-(3-Methoxy-4-tert-butylbenzoyl)-4-(methoxymethyl)-5-(5-methyl-1,3-thiazol-2-yl)-2-(1H-pyrazol-1-ylmethyl)pyrrolidine-2-carboxylic acid] | < 0.15 µM | < 10 µM | –
COC[C@H]1C[C@@](Cc2ccsn2)(C(=O)O)N(C(=O)c2ccc(C(C)(C)C)c(OC)c2)[C@H]1c1nccs1 (racemic) [Example 4, rel-(2R,4S,5R)-1-(3-Methoxy-4-tert-butylbenzoyl)-4-(methoxymethyl)-5-(1,3-thiazol-2-yl)-2-(1,2-thiazol-3-ylmethyl)pyrrolidine-2-carboxylic acid] | < 0.15 µM | < 10 µM | –
COC[C@H]1C[C@@](Cc2cscn2)(C(=O)O)N(C(=O)c2ccc(C(C)(C)C)c(OC)c2)[C@H]1c1nccs1 (single isomer, unassigned; enantiomer a) [Example 12] | < 0.15 µM | < 10 µM | –
COC[C@H]1C[C@@](Cc2ccsn2)(C(=O)O)N(C(=O)c2ccc(C(C)(C)C)c(OC)c2)[C@H]1c1nccs1 (single isomer, unassigned; enantiomer a) [Example 5] | < 0.15 µM | < 10 µM | –
